The record followed here is PubChem BioAssay AID330 (DTP/NCI, 2004).

The subject of the experiment is P388 leukemia ip, CD2F1 mice, survival T/C. As to the kind of experiment: NCI In Vivo Anticancer Drug Screen. Data for tumor model P388 Leukemia (intraperitoneal) in CD2F1 (CDF1) mice. As to conditions: endpoint: median survival time, higher = longer survival. Summed up: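 Mice carrying the transplanted tumor received test compound or vehicle. Survival was recorded in each group, and the value is the treated-group measurement divided by that of the vehicle-treated control group.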

[1] abbreviates: dose: 50.0 mg/kg/injection, schedule: Q01DX009 (ip), vehicle: saline with Tween-80.
[2] abbreviates: dose: 100.0 mg/kg/injection, schedule: Q01DX009 (ip), vehicle: saline with Tween-80.
[3] abbreviates: dose: 60.0 mg/kg/injection, schedule: Q01DX005 (ip), vehicle: saline with Tween-80.
Where [4] appears, read: dose: 100.0 mg/kg/injection, schedule: Q01DX005 (ip), vehicle: saline with Tween-80.
[5] abbreviates: dose: 50.0 mg/kg/injection, schedule: Q04DX002 (ip), vehicle: saline with Tween-80.
[6] abbreviates: dose: 100.0 mg/kg/injection, schedule: Q04DX002 (ip), vehicle: saline with Tween-80.
[7] abbreviates: dose: 50.0 mg/kg/injection, schedule: Q01DX009 (ip), vehicle: saline.
The mark [8] stands for this setting: dose: 100.0 mg/kg/injection, schedule: Q01DX009 (ip), vehicle: saline.

Structures are written as SMILES. Several values for one entry are separate records, joined by “and”; a condition that tells them apart may be missing. Equal entries are not always repeated. Inconclusive results and toxic doses are left out.

`Cc1[nH]c(=O)[nH]c(=O)c1/C=C/C(=O)NC(CO)CS(=O)Cc1ccccc1` (stereo unspecified): the T/C is, setting by setting: (dose: 0.07 mg/kg/injection, schedule: Q01DX009 (ip), vehicle: water) 100 % of control; (dose: 0.15 mg/kg/injection, schedule: Q01DX009 (ip), vehicle: water) 102 % of control; (dose: 0.3 mg/kg/injection, schedule: Q01DX009 (ip), vehicle: water) 100 % of control; (dose: 0.6 mg/kg/injection, schedule: Q01DX009 (ip), vehicle: water) 103 % of control; (dose: 2.0 mg/kg/injection, schedule: Q01DX009 (ip), vehicle: other) 114 % of control; (dose: 4.0 mg/kg/injection, schedule: Q01DX009 (ip), vehicle: other) 118 % of control. The T/C was 122 % of control (dose: 8.0 mg/kg/injection, schedule: Q01DX009 (ip), vehicle: other); 118 % of control (dose: 16.0 mg/kg/injection, schedule: Q01DX009 (ip), vehicle: other); 99 % of control and 108 % of control (dose: 32.0 mg/kg/injection, schedule: Q01DX009 (ip), vehicle: other); 103 % of control (dose: 64.0 mg/kg/injection, schedule: Q01DX009 (ip), vehicle: other); 98 % of control (dose: 128.0 mg/kg/injection, schedule: Q01DX009 (ip), vehicle: other); 92 % of control (dose: 200.0 mg/kg/injection, schedule: Q01DX009 (ip), vehicle: other). Further, the T/C was 100 % of control (dose: 256.0 mg/kg/injection, schedule: Q01DX009 (ip), vehicle: other); 90 % of control (dose: 300.0 mg/kg/injection, schedule: Q01DX009 (ip), vehicle: other); 93 % of control (dose: 400.0 mg/kg/injection, schedule: Q01DX009 (ip), vehicle: other).

In the case of `O=C(CBr)Nc1c(Br)cc(Cl)cc1Br`, the T/C reads like this: under setting [1], 100 % of control; under setting [2], 88 % of control; (dose: 200.0 mg/kg/injection, schedule: Q01DX009 (ip), vehicle: saline with Tween-80) 100 % of control.

For `CC(=O)Nc1nc(C)c(CCCNS(=O)(=O)c2ccc([N+](=O)[O-])cc2)c(=O)[nH]1`, the T/C (dose: 15.0 mg/kg/injection, schedule: Q01DX005 (ip), vehicle: saline with Tween-80) was 100 % of control; the T/C (dose: 30.0 mg/kg/injection, schedule: Q01DX005 (ip), vehicle: saline with Tween-80) was 101 % of control; the T/C under setting [3] is 93 % of control and 95 % of control.

As for `O=C(c1cc(Nc2ccnc3cc(Cl)ccc23)ccc1O)N1CCC(O)(c2ccccc2)CC1`, the T/C by setting is: (dose: 50.0 mg/kg/injection, schedule: Q01DX005 (ip), vehicle: saline with Tween-80) 102 % of control; under setting [4], 108 % of control; (dose: 200.0 mg/kg/injection, schedule: Q01DX005 (ip), vehicle: saline with Tween-80) 109 % of control.

Turning to `NCC(O)COCc1ccccc1` (stereo unspecified), the T/C under setting [5] is 100 % of control; the T/C (dose: 100.0 mg/kg/injection, schedule: Q01DX001 (ip), vehicle: saline with Tween-80) was 90 % of control; the T/C under setting [6] was 100 % of control.

Consider `CCN(CC)Cc1cc(Nc2cc(Cl)c3ccc(N(C)C)cc3n2)ccc1O`, for which the T/C by setting is: (dose: 12.5 mg/kg/injection, schedule: Q01DX009 (ip), vehicle: saline) 110 % of control; (dose: 25.0 mg/kg/injection, schedule: Q01DX009 (ip), vehicle: saline) 110 % of control; under setting [7], 109 % of control and 110 % of control.

As for `N#CN1C2C=CC(c3ccccc3)NC21` (stereo unspecified), the T/C runs as follows: under setting [1], 100 % of control; under setting [2], 96 % of control.

As for `CCCCNP1(NCCCC)=NP(NCCCC)(NCCCC)=NP(NCCCC)(NCCCC)=NP(NCCCC)(NCCCC)=N1`, the T/C is, setting by setting: (dose: 12.5 mg/kg/injection, schedule: Q01DX005 (ip), vehicle: saline with Tween-80) 106 % of control; (dose: 25.0 mg/kg/injection, schedule: Q01DX005 (ip), vehicle: saline with Tween-80) 116 % of control; under setting [4], 88 % of control.

For the compound `CCCCc1c(OC(=O)N(C)C)c(C#N)c2n(C)c3ccccc3n2c1=O`, the T/C reads like this: under setting [3], 101 % of control and 86 % of control; (dose: 120.0 mg/kg/injection, schedule: Q01DX005 (ip), vehicle: saline with Tween-80) 95 % of control; (dose: 240.0 mg/kg/injection, schedule: Q01DX005 (ip), vehicle: saline with Tween-80) 93 % of control and 96 % of control.

For `COC(=O)OCC#Cc1ccccc1`, the T/C is, setting by setting: under setting [5], 100 % of control; under setting [6], 108 % of control; (dose: 200.0 mg/kg/injection, schedule: Q04DX002 (ip), vehicle: saline with Tween-80) 112 % of control.

On to `CCN(CC)CCNc1ccc(C)c2sc3ccccc3c(=O)c12` (tested in a mixture with another compound), for which the T/C is, setting by setting: under setting [7], 160 % of control; under setting [8], 185 % of control; (dose: 200.0 mg/kg/injection, schedule: Q04DX003 (ip), vehicle: saline) 161 % of control; (dose: 300.0 mg/kg/injection, schedule: Q04DX003 (ip), vehicle: saline) 95 % of control.

As for `O=C[O-].[NH2-].[NH2-].[NH2-].[NH2-].[NH2-].[O-][Cl+3]([O-])([O-])O.[Ru+8]`, the T/C (dose: 1.56 mg/kg/injection, schedule: Q04DX003 (ip), vehicle: saline) is 105 % of control; the T/C (dose: 3.13 mg/kg/injection, schedule: Q04DX003 (ip), vehicle: saline) was 104 % of control; the T/C (dose: 6.25 mg/kg/injection, schedule: Q04DX003 (ip), vehicle: saline) is 124 % of control.

In the case of `CCSCCNC(=O)[C@@]1(O)[C@H](O)[C@]2(CC)C=CCN3CC[C@@]4(c5cc([C@@]6(OC(C)=O)C[C@H]7C=C(CC)CN(CCc8c6[nH]c6ccccc86)C7)c(OC)cc5N(C)[C@@H]14)[C@@H]32`, the T/C was 118 % of control (dose: 0.5 mg/kg/injection, schedule: Q01DX001 (ip), vehicle: water); 118 % of control (dose: 1.0 mg/kg/injection, schedule: Q01DX001 (ip), vehicle: water); 165 % of control (dose: 4.0 mg/kg/injection, schedule: Q01DX001 (ip), vehicle: water); 174 % of control (dose: 8.0 mg/kg/injection, schedule: Q01DX001 (ip), vehicle: water).

Take `Cc1ccc(N2C(=O)CSC2=S)cc1C`: the T/C was 90 % of control (dose: 50.0 mg/kg/injection, schedule: Q01DX009 (ip), vehicle: suspension in saline); 90 % of control (dose: 100.0 mg/kg/injection, schedule: Q01DX009 (ip), vehicle: suspension in saline); 103 % of control (dose: 200.0 mg/kg/injection, schedule: Q01DX009 (ip), vehicle: suspension in saline).

For the compound `NCC(O)c1ccc(O)cc1` (stereo unspecified), the T/C by setting is: under setting [7], 101 % of control and 111 % of control; under setting [8], 106 % of control and 108 % of control; (dose: 200.0 mg/kg/injection, schedule: Q01DX009 (ip), vehicle: saline) 106 % of control and 90 % of control; (dose: 400.0 mg/kg/injection, schedule: Q01DX009 (ip), vehicle: saline) 89 % of control and 96 % of control; (dose: 600.0 mg/kg/injection, schedule: Q01DX009 (ip), vehicle: saline) 89 % of control and 90 % of control.

As for `CCc1noc2cc(-c3ccccc3)n(C)c(=O)c12`, the T/C is, setting by setting: (dose: 50.0 mg/kg/injection, schedule: Q01DX005 (ip), vehicle: Klucel (hydroxypropylcellulose) (HPC)) 100 % of control; (dose: 100.0 mg/kg/injection, schedule: Q01DX005 (ip), vehicle: Klucel (hydroxypropylcellulose) (HPC)) 104 % of control; (dose: 200.0 mg/kg/injection, schedule: Q01DX005 (ip), vehicle: Klucel (hydroxypropylcellulose) (HPC)) 105 % of control.

For the compound `Cn1c(=O)cc(NC2OC(CO)C(O)C(O)C2O)[nH]c1=O` (stereo unspecified), the T/C (dose: 60.0 mg/kg/injection, schedule: Q01DX005 (ip), vehicle: saline) is 97 % of control; the T/C (dose: 120.0 mg/kg/injection, schedule: Q01DX005 (ip), vehicle: saline) is 97 % of control; the T/C (dose: 240.0 mg/kg/injection, schedule: Q01DX005 (ip), vehicle: saline) was 99 % of control.

Regarding `N#CC1=C(Nc2ccccc2)SC(c2cccs2)NC1=O` (stereo unspecified), the T/C reads like this: (dose: 60.0 mg/kg/injection, schedule: Q01DX005 (ip), vehicle: Klucel (hydroxypropylcellulose) (HPC)) 108 % of control; (dose: 120.0 mg/kg/injection, schedule: Q01DX005 (ip), vehicle: Klucel (hydroxypropylcellulose) (HPC)) 108 % of control.

Consider `c1ccc(C23CC2COP3(c2ccccc2)(c2ccccc2)c2ccccc2)cc1` (stereo unspecified), for which the T/C is, setting by setting: (dose: 6.25 mg/kg/injection, schedule: Q01DX009 (ip), vehicle: suspension in saline) 90 % of control; (dose: 12.5 mg/kg/injection, schedule: Q01DX009 (ip), vehicle: suspension in saline) 98 % of control; (dose: 25.0 mg/kg/injection, schedule: Q01DX009 (ip), vehicle: suspension in saline) 93 % of control.
